This assay concerns the target T1, ENL L550E (Homo sapiens, UniProt Q03111, L550E).
T1 construct: MBP-ENL (489-559) L550E; made in house; host or cells: Escherichia coli BL21 (DE3)
T1 sequence (Q03111 489-559 L550E): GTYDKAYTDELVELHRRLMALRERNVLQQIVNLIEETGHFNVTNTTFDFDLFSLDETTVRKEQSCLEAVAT
Description: FP saturation binding of Flu-DOT1L 10 mer to mutated ENL. As to the method:
To further map and determined the residues in C-terminal domain of ENL that are essential for the interaction with DOT1L (so called “hot-spots”), an ENL mutant, L550E (FIG. 7A), was prepared which was reported to block the transforming capacity of MLL-ENL fusion protein (see, e.g., Yokoyama, A., et al., (2010) Cancer cell 17, 198-212).
Fluorescence polarization (FP) assay—FP experiments were performed in 96-well, black, round-bottom plates (Corning) using the plate reader (Biotek H1 hybrid). Fluorescein tagged DOT1L 10 mer peptide (Flu-DOT1L) was used as a fluorescent probe in the FP based binding assays. […] The plate was mixed on a shaker and incubated at room temperature to reach equilibrium. The polarization values in milli-polarization units (mP) were measured at an excitation wavelength at 485 nm and an emission wavelength at 530 nm. Polarization data were analyzed using GraphPad Prism 5.0 by non-linear fitting with a one-site binding model.

Here are results for one compound from patent US9862746B2, “Compositions and methods relating to hindering DOT1L recruitment by MLL-fusion proteins” (The Regents of the University of Michigan, priority 2013, dated 2018).

Where a SMILES comes first, the peptide text is derived from it. [ ]: non-standard residue; d: D form. The star is where a group is joined. 5FAM = O=C1OC2(c3ccc(O)cc3Oc3cc(O)ccc32)c2ccc(C(=O)*)cc21; βAla = NCCC(=O)O

Take `CC[C@H](C)[C@H](NC(=O)[C@@H]1CCCN1C(=O)[C@H](CC(C)C)NC(=O)CCNC(=O)CCNC(=O)[C@H](CCCCNC(=O)c1ccc2c(c1)C(=O)OC21c2ccc(O)cc2Oc2cc(O)ccc21)NC(C)=O)C(=O)N[C@@H](CO)C(=O)N[C@H](C(=O)N1CCC[C@H]1C(=O)N[C@@H](CC(C)C)C(=O)N[C@@H](CO)C(=O)N[C@H](C(=O)N[C@H](C(N)=O)C(C)C)[C@@H](C)O)[C@@H](C)CC` [fluorescent labeled DOT1L 10-mer peptide] (Ac-K(5FAM)[βAla][βAla]LPISIPLSTV-NH2): the “binding to ENL L550E mutant protein” value is given as “did not show binding”.
